Read-outs that look alike come from different tables or passages of the source.
Experiments:
α3β4*-nAChR = assay: 86Rb+ efflux nAChR functional assay, SH-SY5Y cells; type: cell-based, human
Text: (§1) Cell Lines and Culture: Human embryonic kidney (HEK-293) cells stably expressing human DAT, NET or SERT were maintained as previously described in Eshleman, A. J.; Carmolli, M.; Cumbay, M.; Martens, C. R.; Neve, K. A.; Janowsky, A., J. Pharmacol. Exp. Ther. 1999, 289, (2), 877-885. Use was made of several human cell lines that naturally or heterologously express specific, functional, human nAChR subtypes. Cells of the TE671/RD line naturally expresses muscle-type nAChR (a1β1γδ- or α1*-nAChR), and SH-SY5Y neuroblastoma cells naturally expresses autonomic α3β4*-nAChRs (containing α3, β4, probably α5, and sometimes β2 subunits). Different clones of SH-EP1 epithelial cell lines have been engineered to heterologously express either α4β2-nAChR, which are thought to be the most abundant, high affinity nicotine-binding nAChR in mammalian brain, or α4β4-nAChR, another possible brain nAChR subtype (SH-EP1-hα4β2 or α4β4 cells, respectively). These cells were maintained as low passage number (1-26 from our frozen stocks) cultures to ensure stable expression of native or heterologously-expressed nAChR as previously described (see Lukas, R. J.; Fryer, J. D.; Eaton, J. B.; L., G. C., Some methods for studies of nicotinic acetylcholine receptor pharmacology, in Nicotinic receptors and the Nervous System, Levine, E. D., Ed. CRC Press: Boca Raton, 2002; pp 3-27, incorporated herein by reference in its entirety). Cells were passaged once weekly by splitting just-confluent cultures 1/300 (TE671/RD), 1/5 (SH-SY5Y), or 1/20 (transfected SH-EP1) in serum-supplemented medium to maintain log-phase growth.
(§2) After cells had adhered (generally overnight, but no sooner than 4 h later), the medium was removed and replaced with 250 μL per well of complete medium supplemented with ˜350,000 cpm of ^86Rb^+ (PerkinElmer Life and Analytical Sciences, Boston, Mass.) and counted at 40% efficiency using Cerenkov counting (TriCarb 1900 liquid scintillation analyzer[…]; PerkinElmer Life Sciences).
(§3) After at least 4 h and typically overnight, ^86Rb^+ efflux was measured using the “flip-plate” technique. See Lukas, R. J.; Fryer, J. D.; Eaton, J. B.; L., G. C., Some methods for studies of nicotinic acetylcholine receptor pharmacology, in Nicotinic receptors and the Nervous System, Levine, E. D., Ed. CRC Press: Boca Raton, 2002; pp 3-27, incorporated herein by reference in its entirety). Briefly, after aspiration of the bulk of ^86Rb^+ loading medium from each well of the “cell plate,” each well containing cells was rinsed 3× with 2 mL of fresh ^86Rb^+ efflux buffer (130 mM NaCl, 5.4 mM KCl, 2 mM CaCl2, 5 mM glucose, 50 mM HEPES, pH 7.4) to remove extracellular ^86Rb^+. Following removal of residual rinse buffer by aspiration, the flip-plate technique was used again to simultaneously introduce 1.5 mL of fresh efflux buffer containing drugs of choice at indicated final concentrations from a 24-well “efflux/drug plate” into the wells of the cell plate. After a 5 min incubation, the solution was “flipped” back into the efflux/drug plate, and any remaining buffer in the cell plate was removed by aspiration. Cells remaining in the cell plate were lysed and suspended by addition of 1.5 mL of 0.1 M NaOH, 0.1% sodium dodecyl sulfate to each well.
(§4) Similarly, the sum of ^86Rb^+ in cell plates and efflux/drug plates also determined the efficiency of ^86Rb^+ loading (the percentage of applied ^86Rb^+ actually loaded into cells).
(§5) Specific efflux was then taken as the difference in control samples between total and non-specific ^86Rb^+ efflux. Any intrinsic agonist activity of test drugs was ascertained using samples containing test drug only at different concentrations and was normalized, after subtraction of non-specific efflux, to specific efflux in test drug-free, control samples.

[1] = target: T1, muscle-type nAChR (α1β1γδ- or α1*-nAChR) (Homo sapiens, UniProt P02708+P07510+P11230+Q07001); assay: 86Rb+ efflux nAChR functional assay, TE671/RD cells; type: cell-based; details: parentheses = S.E.M. as multiplication/division factor
T1 construct: Cells of the TE671/RD line naturally expresses muscle-type nAChR; endogenous in cells; host or cells: TE671/RD cells
Text: as §1, §2, §3, §4, §5

[2] = nAChR inhibition IC50 α1*β1, EC80-EC90 carbamylcholine
[3] = EC80-EC90 carbamylcholine, read-out: nAChR inhibition IC50 α1*β1

T1 sequence (P02708 21-457): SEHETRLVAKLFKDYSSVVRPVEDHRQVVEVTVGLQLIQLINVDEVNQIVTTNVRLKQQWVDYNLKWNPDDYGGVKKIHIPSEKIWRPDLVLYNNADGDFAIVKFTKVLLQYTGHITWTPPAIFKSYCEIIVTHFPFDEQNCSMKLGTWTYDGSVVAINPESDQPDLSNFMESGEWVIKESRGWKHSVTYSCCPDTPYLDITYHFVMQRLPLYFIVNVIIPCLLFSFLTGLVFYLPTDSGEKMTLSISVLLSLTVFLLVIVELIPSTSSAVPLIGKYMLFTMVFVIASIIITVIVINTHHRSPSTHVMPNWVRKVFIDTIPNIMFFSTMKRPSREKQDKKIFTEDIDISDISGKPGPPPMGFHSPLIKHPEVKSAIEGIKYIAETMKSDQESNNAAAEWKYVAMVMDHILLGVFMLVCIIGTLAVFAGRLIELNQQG
T1 sequence (P11230 24-501): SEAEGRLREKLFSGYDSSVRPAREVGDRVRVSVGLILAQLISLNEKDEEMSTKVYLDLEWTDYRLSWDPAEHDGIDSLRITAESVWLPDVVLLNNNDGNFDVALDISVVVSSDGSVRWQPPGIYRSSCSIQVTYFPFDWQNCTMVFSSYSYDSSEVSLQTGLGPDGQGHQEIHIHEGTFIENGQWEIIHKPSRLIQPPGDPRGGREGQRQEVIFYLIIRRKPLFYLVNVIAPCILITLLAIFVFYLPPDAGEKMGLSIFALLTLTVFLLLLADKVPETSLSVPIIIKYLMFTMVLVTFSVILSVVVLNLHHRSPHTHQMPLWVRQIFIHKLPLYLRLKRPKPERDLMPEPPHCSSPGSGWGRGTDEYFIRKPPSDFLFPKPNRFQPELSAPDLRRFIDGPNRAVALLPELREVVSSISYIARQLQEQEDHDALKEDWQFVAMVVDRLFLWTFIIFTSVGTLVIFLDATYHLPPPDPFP
T1 sequence (P07510 23-517): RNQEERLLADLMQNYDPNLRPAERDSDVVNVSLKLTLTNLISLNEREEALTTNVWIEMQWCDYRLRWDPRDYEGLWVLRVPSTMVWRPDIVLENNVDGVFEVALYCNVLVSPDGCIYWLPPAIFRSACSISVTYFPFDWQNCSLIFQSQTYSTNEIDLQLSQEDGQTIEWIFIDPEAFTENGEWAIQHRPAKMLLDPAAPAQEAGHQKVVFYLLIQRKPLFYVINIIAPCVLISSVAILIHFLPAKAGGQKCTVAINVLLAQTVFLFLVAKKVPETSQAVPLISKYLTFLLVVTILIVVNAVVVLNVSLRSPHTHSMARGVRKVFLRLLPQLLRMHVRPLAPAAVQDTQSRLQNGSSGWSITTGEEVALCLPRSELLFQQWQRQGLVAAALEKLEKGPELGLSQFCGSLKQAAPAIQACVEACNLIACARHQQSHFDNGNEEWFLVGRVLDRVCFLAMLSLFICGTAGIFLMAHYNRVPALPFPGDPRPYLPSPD
T1 sequence (Q07001 22-517): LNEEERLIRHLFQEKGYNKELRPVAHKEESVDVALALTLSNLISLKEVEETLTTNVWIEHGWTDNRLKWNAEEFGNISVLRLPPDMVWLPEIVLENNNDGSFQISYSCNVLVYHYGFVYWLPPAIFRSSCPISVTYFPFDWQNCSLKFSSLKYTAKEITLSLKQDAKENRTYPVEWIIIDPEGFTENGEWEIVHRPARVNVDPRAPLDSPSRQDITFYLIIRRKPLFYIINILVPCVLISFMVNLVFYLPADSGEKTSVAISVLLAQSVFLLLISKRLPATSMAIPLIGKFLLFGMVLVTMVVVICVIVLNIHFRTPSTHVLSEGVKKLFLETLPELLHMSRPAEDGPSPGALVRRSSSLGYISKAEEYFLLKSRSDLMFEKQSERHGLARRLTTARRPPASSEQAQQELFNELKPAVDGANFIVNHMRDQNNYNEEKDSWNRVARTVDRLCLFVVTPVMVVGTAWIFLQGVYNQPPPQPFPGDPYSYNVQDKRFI

**Q.** What does the source list for `CC1NC(C)(C)COC1(O)c1ccc(Cl)c(Cl)c1` (racemic) [Compound 4n, 2-(3,4-Dichlorophenyl)-3,5,5-trimethylmorpholin-2-ol]?
**A.** selectivity for α3β4*- over α4β2-nAChR (α3β4*-nAChR): ~8 fold; IC50 [1, 2]: 7.2 µM

**Q.** With `CC1NC(C)(C)COC1(O)c1cc(Cl)cc(Cl)c1` (racemic) [Compound 4p, 2-(3,5-Dichlorophenyl)-3,5,5-trimethylmorpholin-2-ol] as the molecule, how does the IC50 [1, 2] read?
**A.** 7.2 µM

**Q.** `C[C@@H]1NC(C)(C)CO[C@@]1(O)c1ccccc1` [Compound 4b, (2S,3S)-2-Phenyl-3,5,5-trimethylmorpholin-2-ol] was tested. Which IC50 [1, 2] did it give?
**A.** > 100 µM

**Q.** Which IC50 [1, 2] does the source give for `C[C@@H]1NC(C)(C)CO[C@@]1(O)c1cccc(F)c1` [Compound 4c, (2S,3S)-2-(3-Fluorophenyl)-3,5,5-trimethylmorpholin-2-ol] here?
**A.** > 100 µM

**Q.** Which results are given for `C[C@@H]1NC(C)(C)CO[C@@]1(O)c1cccc(Br)c1` [Compound 4d, (2S,3S)-2-(3-Bromophenyl)-3,5,5-trimethylmorpholin-2-ol]?
**A.** IC50 [1, 3]: 18 µM; IC50 [1, 2]: 5.9 to 19 µM

**Q.** For `Cc1cccc([C@]2(O)OCC(C)(C)N[C@H]2C)c1` [Compound 4e, (2S,3S)-2-(m-Tolyl)-3,5,5-trimethylmorpholin-2-ol], which IC50 [1, 3] is on record?
**A.** 33 µM

**Q.** And the IC50 [1, 2]?
**A.** > 33 µM

**Q.** For `COc1cccc([C@]2(O)OCC(C)(C)N[C@H]2C)c1` [Compound 4f, (2S,3S)-2-(3-Methoxyphenyl)-3,5,5-trimethylmorpholin-2-ol], which IC50 [1, 3] is on record?
**A.** 49 µM

**Q.** How did the IC50 [1, 3] turn out when `C[C@@H]1NC(C)(C)CO[C@@]1(O)c1cccc([N+](=O)[O-])c1` [Compound 4g, (2S,3S)-2-(3-Nitrophenyl)-3,5,5-trimethylmorpholin-2-ol] was run?
**A.** 96 µM

**Q.** How did the IC50 [1, 3] turn out when `C[C@@H]1NC(C)(C)CO[C@@]1(O)c1ccc(F)cc1` [Compound 4h, (2S,3S)-2-(4-Fluorophenyl)-3,5,5-trimethylmorpholin-2-ol] was run?
**A.** 69 µM

**Q.** With `C[C@@H]1NC(C)(C)CO[C@@]1(O)c1ccc(Cl)cc1` [Compound 4i, (2S,3S)-2-(4-Chlorophenyl)-3,5,5-trimethylmorpholin-2-ol] as the molecule, how does the IC50 [1, 3] read?
**A.** 19 µM

**Q.** With `Cc1ccc([C@]2(O)OCC(C)(C)N[C@H]2C)cc1` [Compound 4j, (2S,3S)-3,5,5-Trimethyl-2-(4-methylphenyl)morpholin-2-ol] as the molecule, how does the IC50 [1, 3] read?
**A.** 20 µM

**Q.** Which IC50 [1, 3] does the source give for `COc1ccc([C@]2(O)OCC(C)(C)N[C@H]2C)cc1` [Compound 4k, (2S,3S)-2-(4-Methoxyphenyl)-3,5,5-trimethylmorpholin-2-ol] here?
**A.** 25 µM

**Q.** Which IC50 [1, 3] does the source give for `C[C@@H]1NC(C)(C)CO[C@@]1(O)c1ccc(-c2ccccc2)cc1` [Compound 4l, (2S,3S)-2-Biphenyl-4-yl-3,5,5-trimethylmorpholin-2-ol] here?
**A.** 5.9 µM

**Q.** And the IC50 [1, 2]?
**A.** 5.9 to 19 µM

**Q.** For `C[C@@H]1NC(C)(C)CO[C@@]1(O)c1ccc(F)c(F)c1` [Compound 4m, (2S,3S)-2-(3,4-Difluorophenyl)-3,5,5-trimethylmorpholin-2-ol], which IC50 [1, 3] is on record?
**A.** 36 µM

**Q.** With `C[C@@H]1NC(C)(C)CO[C@@]1(O)c1cc(F)cc(F)c1` [Compound 4o, (2S,3S)-2-(3,5-Difluorophenyl)-3,5,5-trimethylmorpholin-2-ol] as the molecule, how does the IC50 [1, 3] read?
**A.** 23 µM

**Q.** For `C[C@@H]1NC(C)(C)CO[C@@]1(O)c1cccc2ccccc12` [Compound 4q, (2S,3S)-2-(Naphthalen-1-yl)-3,5,5-trimethylmorpholin-2-ol], which IC50 [1, 3] is on record?
**A.** 6.6 µM

**Q.** With `C[C@@H]1NC(C)(C)CO[C@@]1(O)c1ccc2ccccc2c1` [Compound 4r, (2S,3S)-2-(Naphthalen-2-yl)-3,5,5-trimethylmorpholin-2-ol] as the molecule, how does the IC50 [1, 3] read?
**A.** 11 µM

**Q.** With `CC[C@@H]1NC(C)(C)CO[C@@]1(O)c1cccc(Cl)c1` [Compound 4s, (2S,3S)-2-(3-Chlorophenyl)-3-ethyl-5,5-dimethylmorpholin-2-ol] as the molecule, how does the IC50 [1, 3] read?
**A.** 14 µM

**Q.** What does the source list for `C[C@@H]1N(C)C(C)(C)CO[C@@]1(O)c1cccc(Cl)c1` [Compound 4u, (2S,3S)-2-(3-Chlorophenyl)-3,4,5,5-tetramethylmorpholin-2-ol]?
**A.** IC50 [1, 3]: 57 µM; IC50 [1, 2]: > 33 µM

**Q.** What does the source list for `C[C@@H]1N(C)C(C)(C)CO[C@@]1(O)c1ccc(Cl)cc1` [Compound 4v, (2S,3S)-2-(4-Chlorophenyl)-3,4,5,5-tetramethylmorpholin-2-ol]?
**A.** IC50 [1, 3]: 43 µM; IC50 [1, 2]: > 33 µM

Source: patent US8906908B2, “Hydroxybupropion analogues for treating drug dependence” (priority 2010, dated 2014)
